Assay results as given in the supplement of paper PMC10307832.

How the values were obtained:
Assay in all cases: relative viability (nuclei count vs DMSO), 5 days (fraction); higher = more cells survive
Mirin + Foretinib = compound: N=C1NC(=O)/C(=C/c2ccc(O)cc2)S1 [Mirin] + COc1cc2c(Oc3ccc(NC(=O)C4(C(=O)Nc5ccc(F)cc5)CC4)cc3F)ccnc2cc1OCCCN1CCOCC1 [Foretinib] (partner 0.25 µM)
In short: (§1)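 After 5 days of treatment, lung cancer cells in 1536-well plates were fixed and stained in a single step (final 0.05% Triton X-100, 1% formaldehyde, 1 ug/ml Hoechst) and their nuclei counted on 4× images. Treatment had been applied by pin tool the day after seeding as one drug alone or as a fixed anchor-drug dose with five library-drug doses (not always all listed) in √10 steps. Relative viability is the nuclei count of treated wells divided by that of vehicle wells, and values are medians of duplicate plates.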

[1] = compound: CCC1=CN=CN=C1N2CCN(CC2)CC3=NC4=C(N3)C=C(C=C4)C(F)(F)F + Nc1nc2[nH]cc(CCc3ccc(C(=O)N[C@@H](CCC(=O)O)C(=O)O)cc3)c2c(=O)[nH]1 [Pemetrexed] (partner 0.2 µM)
In short: as §1

Mirin + Dasatinib = compound: N=C1NC(=O)/C(=C/c2ccc(O)cc2)S1 [Mirin] + Cc1nc(Nc2ncc(C(=O)Nc3c(C)cccc3Cl)s2)cc(N2CCN(CCO)CC2)n1 [Dasatinib] (partner 0.075 µM)
In short: as §1

[2] = compound: CCn1c(-c2nonc2N)nc2cnc(Oc3cccc(NC(=O)c4ccc(OCCN5CCOCC5)cc4)c3)cc21 + NC(=O)Nc1cc(-c2cccc(F)c2)sc1C(=O)N[C@H]1CCCNC1 [AZD7762] (partner 0.2 µM)
In short: as §1

Cell Line | relative viability (Mirin + Foretinib; first compound 0.25 µM) | relative viability (Mirin + Foretinib; first compound 0.7906 µM) | relative viability (Mirin + Foretinib; first compound 2.5 µM) | relative viability (Mirin + Foretinib; first compound 7.906 µM) | relative viability (Mirin + Foretinib; first compound 25 µM) | relative viability ([1]; first compound 0.04 µM) | relative viability ([1]; first compound 0.1265 µM) | relative viability ([1]; first compound 0.4 µM) | relative viability ([1]; first compound 1.265 µM) | relative viability ([1]; first compound 4 µM) | relative viability (Mirin + Dasatinib; first compound 0.25 µM) | relative viability (Mirin + Dasatinib; first compound 0.7906 µM) | relative viability (Mirin + Dasatinib; first compound 2.5 µM) | relative viability (Mirin + Dasatinib; first compound 7.906 µM) | relative viability (Mirin + Dasatinib; first compound 25 µM) | relative viability ([2]; first compound 0.04 µM) | relative viability ([2]; first compound 0.1265 µM) | relative viability ([2]; first compound 0.4 µM) | relative viability ([2]; first compound 1.265 µM) | relative viability ([2]; first compound 4 µM)
NCI-H838 | 1.05 | 1.08 | 1.08 | 1 | 0.852 | 0.248 | 0.239 | 0.247 | 0.244 | 0.225 | 0.275 | 0.277 | 0.309 | 0.394 | 0.346 | 0.946 | 0.725 | 0.669 | 0.635 | 0.691
HARA | 0.817 | – | 0.845 | 0.902 | 0.708 | 0.276 | 0.242 | 0.227 | 0.226 | 0.222 | 0.194 | – | 0.222 | 0.247 | 0.195 | 0.215 | 0.161 | 0.148 | 0.207 | 0.198
NCI-H23 | 0.8 | – | 1.13 | 0.891 | 0.773 | 0.579 | 0.755 | 0.615 | 0.646 | 0.558 | 0.934 | – | 0.77 | 0.604 | 0.555 | 0.453 | 0.277 | 0.229 | 0.115 | 0.151
LCLC-97TM1 | 0.762 | 0.848 | 0.89 | 0.991 | 0.703 | 0.161 | 0.152 | 0.153 | 0.194 | 0.173 | 0.773 | 0.816 | 0.868 | 0.737 | 0.765 | 0.273 | 0.425 | – | – | 0.135
LC-2-ad | 0.97 | 1 | 0.988 | 0.907 | 0.759 | 0.272 | 0.266 | 0.283 | 0.289 | 0.292 | 0.588 | 0.504 | 0.668 | 0.386 | 0.368 | 0.882 | 0.79 | 0.57 | 0.368 | 0.281
SW 1573 | 0.82 | 0.822 | 0.892 | 0.76 | 0.981 | 0.884 | 0.947 | 0.83 | 0.747 | 0.885 | 0.466 | 0.506 | 0.605 | 0.361 | 0.295 | – | – | – | – | –
EKVX | 0.757 | 0.73 | 0.848 | 0.735 | 0.932 | 0.425 | 0.395 | 0.399 | 0.404 | 0.384 | 0.671 | – | 0.565 | 0.494 | 0.564 | 0.927 | 0.718 | 0.478 | 0.476 | 0.621
NCI-H2087 | 1.24 | 1.28 | 1 | 0.943 | 1.08 | 0.634 | 0.732 | 0.72 | 0.632 | 0.55 | 1.06 | 0.869 | 0.752 | 0.958 | 0.677 | 1.45 | 1.11 | 1.13 | 0.845 | 0.867
HCC-827 | 1.03 | 1.08 | 1.06 | 1.06 | 1.23 | 0.268 | 0.221 | 0.276 | 0.242 | 0.278 | 0.407 | 0.336 | 0.301 | 0.451 | 0.334 | 0.241 | 0.23 | 0.233 | 0.178 | 0.203
NCI-H661 | 1.05 | 1.06 | 1.02 | 1.07 | 0.975 | 0.908 | 0.973 | 0.941 | 0.921 | 0.921 | 0.985 | 0.737 | 0.884 | 0.734 | 0.697 | – | – | – | – | –
CAL-12T | 1.16 | – | 1.12 | 1.04 | 1.31 | 1.3 | 1.18 | 1.19 | 1.24 | 1.18 | 0.489 | – | 0.503 | 0.347 | 0.28 | 0.675 | 0.601 | 0.56 | 0.267 | 0.353
NCI-H2342 | 1.14 | 1.11 | 1.15 | 1.03 | 0.861 | 0.785 | 0.751 | 0.652 | 0.518 | 0.625 | 0.35 | 0.342 | 0.327 | 0.289 | 0.317 | 0.572 | 0.551 | 0.361 | 0.422 | 0.459
SW 900 | 1.02 | 1.19 | 1.1 | 0.866 | 0.827 | 0.439 | 0.464 | 0.495 | – | 0.458 | 0.513 | 0.521 | 0.54 | 0.542 | 0.47 | 0.668 | 0.59 | 0.647 | 0.435 | 0.495
IA-LM | 1.12 | 1.07 | 1.23 | 0.757 | 1.09 | – | – | – | – | – | – | – | – | – | – | – | – | – | – | –
EPLC-272H | 0.744 | – | 0.602 | 0.519 | 0.306 | 0.308 | 0.33 | 0.276 | 0.318 | 0.281 | 0.416 | – | 0.413 | 0.301 | 0.232 | 0.211 | 0.199 | 0.153 | 0.128 | 0.0806
A-427 | 1.06 | – | 1.07 | 1.05 | 0.607 | 0.761 | 0.934 | 0.873 | 0.835 | 0.898 | 0.766 | – | 0.78 | 0.714 | 0.632 | 0.774 | 0.503 | 0.364 | 0.188 | 0.21
NCI-H650 | 0.834 | 1.07 | 1.06 | – | 1.13 | 0.806 | 0.866 | 0.99 | 0.837 | 0.973 | 0.455 | 0.391 | 0.397 | – | 0.506 | 1.15 | 0.871 | 0.46 | 0.263 | 0.354
NCI-H1975 | 0.934 | 0.914 | 0.98 | 0.919 | 0.973 | 0.318 | 0.295 | 0.298 | 0.298 | 0.276 | 0.437 | 0.482 | 0.384 | 0.417 | 0.354 | 0.597 | 0.471 | 0.374 | 0.201 | 0.214
